What was measured:
[1] = tested on: common mallow; test: Test F preemergence test; format: in vivo, Malva sylvestris; conditions: scale 0 to 100
Outline: (§1)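 Compound in a non-phytotoxic solvent blend with surfactant is applied preemergence to planted seeds or postemergence to sugarcane plants. Plants and controls stay in the greenhouse 14 to 21 days before visual comparison.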

[2] = tested on: annual bluegrass; test: Test F preemergence test; format: in vivo, Poa annua; conditions: scale 0 to 100
Outline: as §1

[3] = tested on: Goosegrass; test: Test C pre-/postemergence test; format: in vivo, Eleusin indica; conditions: for Plant response rating, Goosegrass: 31 g ai/ha, scale 0 to 100 (0 no effect, 100 complete control)
Outline: (§2)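 Seeds were planted and treated preemergence with test chemical in a non-phytotoxic solvent mixture containing surfactant. Postemergence applications of the same formulation went onto plants 2 to 18 cm tall (1- to 4-leaf stage). A dash marks no test result.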

[4] = tested on: common groundsel; test: Test F preemergence test; format: in vivo, Senecio vulgaris; conditions: scale 0 to 100
Outline: as §1

[5] = tested on: quackgrass; test: Test F preemergence test; format: in vivo, Elytrigia repens; conditions: scale 0 to 100
Outline: as §1

[6] = tested on: dallisgrass; test: Test F preemergence test; format: in vivo, Paspalum dilatatum; conditions: scale 0 to 100
Outline: as §1

[7] = tested on: kochia; test: Test F preemergence test; format: in vivo, Kochia scoparia; conditions: scale 0 to 100
Outline: as §1

[8] = tested on: umbrella sedge; test: Test C flooded paddy test; format: in vivo, Cyperus difformis; conditions: Flood
Outline: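 In-water treatment: compound dosed into 3 cm flood over soil, water level unchanged throughout. Controls run alongside; visual assessment at day 13–15.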

[9] = tested on: crabgrass; test: Test C pre-/postemergence test; format: in vivo, Digitaria sanguinalis; conditions: for Plant response rating, Crabgrass, Large: 31 g ai/ha, scale 0 to 100 (0 no effect, 100 complete control)
Outline: as §2

[10] = tested on: mustard; test: Test F preemergence test; format: in vivo, Brassica nigra; conditions: scale 0 to 100
Outline: as §1

[11] = tested on: wheat; test: Test A pre-/postemergence greenhouse test; format: in vivo, Triticum aestivum; conditions: for Plant response rating, Wheat: 0 to 100 scale where 0 is no effect and 100 is complete control; for Wheat plant response rating: 0 to 100 scale
Outline: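 Greenhouse herbicide screen, pre- and postemergence in parallel. Soil: loam plus sand. Formulation: non-phytotoxic solvent mix with surfactant. Postemergence stage: one to two leaves, 2–10 cm height. Evaluation: visual injury, compared with untreated controls, about 10 days after treatment.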

[12] = tested on: green foxtail; test: Test F preemergence test; format: in vivo, Setaria viridis; conditions: scale 0 to 100
Outline: as §1

[13] = 62 g ai/ha, Preemergence, scale 0 to 100
[14] = 125 g ai/ha, preemergence, scale 0 (no effect) to 100 (complete control)
[15] = preemergence, 250 g ai/ha, scale 0 (no effect) to 100 (complete control)
[16] = 62 g ai/ha, scale 0 to 100 (0 no effect, 100 complete control)
[17] = 250 g ai/ha, scale 0 to 100, 0 no effect, 100 complete control, 13 to 15 days
[18] = Postemergence, 500 g ai/ha, 0 is no effect, 100 is complete control
[19] = Preemergence, 125 g ai/ha, 0 no effect, 100 complete control

**Q.** Which results are given for `CCc1cc[n+]([O-])c(S(=O)(=O)Cc2c(C(F)(F)F)nn(C)c2OCC(F)(F)F)c1` [Compound 60]?
**A.** Mallow plant response rating ([1]; 62 g ai/ha, Preemergence): 75; Mallow plant response rating ([1]; 125 g ai/ha, preemergence): 100; Mallow plant response rating ([1]; 250 g ai/ha, preemergence): 100; Plant response rating, Mallow ([1]; Preemergence, 31 g ai/ha): 0; Bluegrass plant response rating ([2]; 62 g ai/ha, Preemergence): 50; Bluegrass plant response rating ([2]; 125 g ai/ha, preemergence): 90; Bluegrass plant response rating ([2]; 250 g ai/ha, preemergence): 100; Plant response rating, Bluegrass ([2]; Preemergence, 31 g ai/ha): 35; Goosegrass plant response rating [3, 13]: 100; Goosegrass plant response rating [3, 14]: 100; Plant response rating, Goosegrass ([3]; Preemergence): 100; Goosegrass plant response rating [3, 15]: 100; Groundsel plant response rating ([4]; 62 g ai/ha, Preemergence): 60; Groundsel plant response rating ([4]; 125 g ai/ha, preemergence): 75; Groundsel plant response rating ([4]; 250 g ai/ha, preemergence): 95; Plant response rating, Groundsel ([4]; Preemergence, 31 g ai/ha): 0; Quackgrass plant response rating ([5]; 62 g ai/ha, Preemergence): 75; Quackgrass plant response rating ([5]; 125 g ai/ha, preemergence): 90; Quackgrass plant response rating ([5]; 250 g ai/ha, preemergence): 100; Plant response rating, Quackgrass ([5]; Preemergence, 31 g ai/ha): 30; Dallisgrass plant response rating ([6]; 62 g ai/ha, Preemergence): 75; Dallisgrass plant response rating ([6]; 125 g ai/ha, preemergence): 80; Dallisgrass plant response rating ([6]; 250 g ai/ha, preemergence): 100; Plant response rating, Dallisgrass ([6]; Preemergence, 31 g ai/ha): 75; Kochia plant response rating ([7]; 62 g ai/ha, Preemergence): 65; Kochia plant response rating ([7]; 125 g ai/ha, preemergence): 100; Kochia plant response rating ([7]; 250 g ai/ha, preemergence): 100; Plant response rating, Kochia ([7]; Preemergence, 31 g ai/ha): 0; Plant response rating, Sedge, Umbrella [8, 16]: 0; Plant response rating, Sedge, Umbrella [8, 17]: 80; Crabgrass, Large plant response rating [9, 13]: 100; Crabgrass, Large plant response rating [9, 14]: 100; Plant response rating, Crabgrass, Large ([9]; Preemergence): 100; Crabgrass, Large plant response rating [9, 15]: 100; Black Mustard plant response rating ([10]; 62 g ai/ha, Preemergence): 60; Black Mustard plant response rating ([10]; 125 g ai/ha, preemergence): 100; Black Mustard plant response rating ([10]; 250 g ai/ha, preemergence): 100; Plant response rating, Black Mustard ([10]; Preemergence, 31 g ai/ha): 0; Plant response rating, Wheat ([11]; Postemergence, 125 g ai/ha): 50; Wheat plant response rating [11, 18]: 60; Wheat plant response rating [11, 19]: 50; Plant response rating, Wheat ([11]; Preemergence, 500 g ai/ha): 70; Foxtail, Green plant response rating ([12]; 62 g ai/ha, Preemergence): 75; Foxtail, Green plant response rating ([12]; 125 g ai/ha, preemergence): 100; Foxtail, Green plant response rating ([12]; 250 g ai/ha, preemergence): 100; Plant response rating, Foxtail, Green ([12]; Preemergence, 31 g ai/ha): 15

**Q.** With `CCn1nc(C(F)(F)F)c(CS(=O)(=O)c2cccc[n+]2[O-])c1OCC(F)(F)F` [Compound 63] as the compound, how does the “Plant response rating, Mallow” value ([1]; 16 g ai/ha, preemergence) read?
**A.** 0

**Q.** What about the “Mallow plant response rating” value ([1]; 125 g ai/ha, preemergence) of the same compound?
**A.** 100

**Q.** And the “Plant response rating, Mallow” value ([1]; Preemergence, 31 g ai/ha)?
**A.** 98

**Q.** What about the “Plant response rating, Bluegrass” value ([2]; 16 g ai/ha, preemergence) of the same compound?
**A.** 25

**Q.** What about the “Bluegrass plant response rating” value ([2]; 62 g ai/ha, Preemergence) of the same compound?
**A.** 90

**Q.** And the “Bluegrass plant response rating” value ([2]; 125 g ai/ha, preemergence)?
**A.** 100

**Q.** What about the “Plant response rating, Bluegrass” value ([2]; Preemergence, 31 g ai/ha) of the same compound?
**A.** 65

**Q.** What about the “Goosegrass plant response rating” value [3, 13] of the same compound?
**A.** 100

**Q.** And the “Goosegrass plant response rating” value [3, 14]?
**A.** 100

**Q.** What about the “Plant response rating, Goosegrass” value ([3]; Preemergence) of the same compound?
**A.** 100

**Q.** And the “Goosegrass plant response rating” value [3, 15]?
**A.** 100

**Q.** And the “Plant response rating, Groundsel” value ([4]; 16 g ai/ha, preemergence)?
**A.** 0

**Q.** And the “Groundsel plant response rating” value ([4]; 62 g ai/ha, Preemergence)?
**A.** 0

**Q.** What about the “Groundsel plant response rating” value ([4]; 125 g ai/ha, preemergence) of the same compound?
**A.** 0

**Q.** What about the “Plant response rating, Groundsel” value ([4]; Preemergence, 31 g ai/ha) of the same compound?
**A.** 0

**Q.** And the “Plant response rating, Quackgrass” value ([5]; 16 g ai/ha, preemergence)?
**A.** 0

**Q.** And the “Quackgrass plant response rating” value ([5]; 62 g ai/ha, Preemergence)?
**A.** 95

**Q.** What about the “Quackgrass plant response rating” value ([5]; 125 g ai/ha, preemergence) of the same compound?
**A.** 100

**Q.** And the “Plant response rating, Quackgrass” value ([5]; Preemergence, 31 g ai/ha)?
**A.** 65

**Q.** And the “Plant response rating, Dallisgrass” value ([6]; 16 g ai/ha, preemergence)?
**A.** 15

**Q.** What about the “Dallisgrass plant response rating” value ([6]; 62 g ai/ha, Preemergence) of the same compound?
**A.** 80

**Q.** And the “Dallisgrass plant response rating” value ([6]; 125 g ai/ha, preemergence)?
**A.** 100

**Q.** What about the “Plant response rating, Dallisgrass” value ([6]; Preemergence, 31 g ai/ha) of the same compound?
**A.** 50

**Q.** And the “Plant response rating, Kochia” value ([7]; 16 g ai/ha, preemergence)?
**A.** 0

**Q.** And the “Kochia plant response rating” value ([7]; 62 g ai/ha, Preemergence)?
**A.** 0

**Q.** What about the “Kochia plant response rating” value ([7]; 125 g ai/ha, preemergence) of the same compound?
**A.** 100

**Q.** And the “Plant response rating, Kochia” value ([7]; Preemergence, 31 g ai/ha)?
**A.** 0

**Q.** And the “Plant response rating, Sedge, Umbrella” value [8, 16]?
**A.** 0

**Q.** What about the “Plant response rating, Sedge, Umbrella” value [8, 17] of the same compound?
**A.** 85

**Q.** What about the “Crabgrass, Large plant response rating” value [9, 13] of the same compound?
**A.** 100

**Q.** What about the “Crabgrass, Large plant response rating” value [9, 14] of the same compound?
**A.** 100

**Q.** And the “Plant response rating, Crabgrass, Large” value ([9]; Preemergence)?
**A.** 100

**Q.** And the “Crabgrass, Large plant response rating” value [9, 15]?
**A.** 100

**Q.** What about the “Plant response rating, Black Mustard” value ([10]; 16 g ai/ha, preemergence) of the same compound?
**A.** 0

**Q.** What about the “Black Mustard plant response rating” value ([10]; 62 g ai/ha, Preemergence) of the same compound?
**A.** 50

**Q.** What about the “Black Mustard plant response rating” value ([10]; 125 g ai/ha, preemergence) of the same compound?
**A.** 90

**Q.** And the “Plant response rating, Black Mustard” value ([10]; Preemergence, 31 g ai/ha)?
**A.** 50

**Q.** What about the “Plant response rating, Wheat” value ([11]; Postemergence, 125 g ai/ha) of the same compound?
**A.** 50

**Q.** What about the “Wheat plant response rating” value [11, 18] of the same compound?
**A.** 60

**Q.** And the “Wheat plant response rating” value [11, 19]?
**A.** 20

**Q.** What about the “Plant response rating, Wheat” value ([11]; Preemergence, 500 g ai/ha) of the same compound?
**A.** 80

**Q.** What about the “Plant response rating, Foxtail, Green” value ([12]; 16 g ai/ha, preemergence) of the same compound?
**A.** 65

**Q.** And the “Foxtail, Green plant response rating” value ([12]; 62 g ai/ha, Preemergence)?
**A.** 90

**Q.** What about the “Foxtail, Green plant response rating” value ([12]; 125 g ai/ha, preemergence) of the same compound?
**A.** 100

**Q.** And the “Plant response rating, Foxtail, Green” value ([12]; Preemergence, 31 g ai/ha)?
**A.** 80

Reference: patent US20100298141A1, “SUBSTITUTED PYRIDINE N-OXIDE HERBICIDES” (E. I. DU PONT DE NEMOURS AND COMPANY, priority 2007, published 2010)
